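48-hour exposure; five concentrations; linearly interpolated endpoints. TGI: concentration producing complete growth inhibition.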
Experiments:
Assay in all cases: NCI tumour cell line growth inhibition, 48 h
HOP-62 NSCLC = test system: HOP-62 NSCLC
NCI-H23 lung = test system: NCI-H23 lung
HCT-116 colon = test system: HCT-116 colon
MALME-3M melanoma = test system: MALME-3M melanoma
HOP-92 NSCLC = test system: HOP-92 NSCLC
HL-60(TB) leukemia = test system: HL-60(TB) leukemia
MDA-N = test system: MDA-N
M14 melanoma = test system: M14 melanoma
OVCAR-8 ovarian = test system: OVCAR-8 ovarian
SF-268 CNS = test system: SF-268 CNS
NCI-H226 lung = test system: NCI-H226 lung
786-0 renal = test system: 786-0 renal
UACC-257 melanoma = test system: UACC-257 melanoma
SK-MEL-2 melanoma = test system: SK-MEL-2 melanoma
UO-31 renal = test system: UO-31 renal
ACHN renal = test system: ACHN renal
TK-10 renal = test system: TK-10 renal
EKVX NSCLC = test system: EKVX NSCLC
CCRF-CEM leukemia = test system: CCRF-CEM leukemia
RPMI-8226 leukemia = test system: RPMI-8226 leukemia
SK-MEL-28 melanoma = test system: SK-MEL-28 melanoma
PC-3 prostate = test system: PC-3 prostate
T-47D breast = test system: T-47D breast
U251 CNS = test system: U251 CNS
NCI-H522 lung = test system: NCI-H522 lung
DU-145 prostate = test system: DU-145 prostate
HCC-2998 colon = test system: HCC-2998 colon
SK-OV-3 ovarian = test system: SK-OV-3 ovarian
NCI-H460 lung = test system: NCI-H460 lung
CAKI-1 renal = test system: CAKI-1 renal
OVCAR-4 ovarian = test system: OVCAR-4 ovarian
A498 renal = test system: A498 renal
SK-MEL-5 melanoma = test system: SK-MEL-5 melanoma
COLO 205 colon = test system: COLO 205 colon
HCT-15 colon = test system: HCT-15 colon
SF-295 CNS = test system: SF-295 CNS
SW-620 colon = test system: SW-620 colon
MDA-MB-231 breast = test system: MDA-MB-231 breast
KM12 colon = test system: KM12 colon
SNB-75 CNS = test system: SNB-75 CNS
IGROV1 ovarian = test system: IGROV1 ovarian
SNB-19 CNS = test system: SNB-19 CNS
MDA-MB-435 = test system: MDA-MB-435
HT29 colon = test system: HT29 colon
HS 578T breast = test system: HS 578T breast
BT-549 breast = test system: BT-549 breast
OVCAR-5 ovarian = test system: OVCAR-5 ovarian
NCI/ADR-RES ovarian = test system: NCI/ADR-RES ovarian
UACC-62 melanoma = test system: UACC-62 melanoma
SN12C renal = test system: SN12C renal
OVCAR-3 ovarian = test system: OVCAR-3 ovarian
MCF7 breast = test system: MCF7 breast
A549 NSCLC = test system: A549 NSCLC
RXF 393 renal = test system: RXF 393 renal
LOX IMVI melanoma = test system: LOX IMVI melanoma
K-562 leukemia = test system: K-562 leukemia
MOLT-4 leukemia = test system: MOLT-4 leukemia
SR leukemia = test system: SR leukemia
SF-539 CNS = test system: SF-539 CNS

Measured: TGI

CCC(=O)C(c1ccccc1)c1ccccn1 (stereo not given)
not listed: K-562 leukemia | MOLT-4 leukemia | SR leukemia | SF-539 CNS
> 100 µM: all other assays above

CCOP(=O)(OCC)[C@H](O)c1ccsc1
not listed: HOP-92 NSCLC | HL-60(TB) leukemia | HS 578T breast | OVCAR-3 ovarian
> 100 µM: all other assays above

Reference: PubChem BioAssay (NCI)
